From US20080085563A1, “Detection of Gadolinium Chelates” (IDEXX LABORATORIES, INC., priority 2006, published 2008)
Where a SMILES comes first, the peptide text is derived from it.

Columns and labels:
[1] = weak acid of low-pH buffering system; first value; cited from earlier work
[2] = Masking of calcium interference in the gadolinium-arsenazo III assay
Text: For instance, while calcium interference decreases exponentially with pH, it is not completely eliminated. In addition, the affinity of gadolinium for arsenazo dye decreases with pH, reducing both linearity and sensitivity of gadolinium response. In one aspect, the method of the invention allows for a pH window where the pH is high enough to allow highly efficient measurement of gadolinium chelate while reducing calcium interference by 99% relative to its maximal binding to Arsenazo at pH 6. Nonetheless, even within this optimally selective pH window, interference from both calcium and ferric ions is substantial. To remedy this persistent residual calcium interference, in another aspect of the invention, the compound HDMP, commonly used as an oral iron chelator for treatment of thalassemia (iron overload), is added to the reagent of the invention to effectively mask interference from both calcium and ferric ions without substantially reducing gadolinium assay response. In general, chelating agents, including EDTA, EGTA, TTHA, EDTPO, phenanthroline, and 8-hydroxyquinoline have a greater affinity for rare earth metals, such as gadolinium, than for calcium. […] This is obtained by subtracting the absorbance of each solution at 750 nm from its absorbance at 654 nm, reducing interference from wavelength-independent absorbance due to sample turbidity.

[3] = Effect of masking agent on gadolinium response in the arsenazo III assay; details: optimal amount of HDMP, pH 2.4
Text: In general, chelating agents, including EDTA, EGTA, TTHA, EDTPO, phenanthroline, and 8-hydroxyquinoline have a greater affinity for rare earth metals, such as gadolinium, than for calcium. HDMP, however, is unusual in its ability to bind calcium preferentially over gadolinium. […] This essentially, although not completely, eliminates the interference by calcium with the method of the invention. […] In one aspect of the invention, the reagent includes HDMP. For example, a reagent of the invention can contain about 10 to about 2000 mM HDMP. In various aspects, the reagent contains about 10 to about 800 mM HDMP, and more particularly about 70 mM HDMP. […] Higher levels of HDMP may be selected to further remove calcium and iron interference based upon analytical sensitivity, matrix effects (e.g., diet, drugs, toxicants, […] icterus), solubility, sample quality (e.g., hemolysis) and storage stability. […] Commercial […]®, Berlex Laboratories, Wayne N.J.) ranging from 50-400 μM was added to 0.07 mL of canine serum. The canine serum was added to the arsenazo III reagent in varying amounts. […] This is obtained by subtracting the absorbance of each solution at 750 nm from its absorbance at 654 nm, reducing interference from wavelength-independent absorbance due to sample turbidity.

[4] = Masking of ferric ion interference in the gadolinium-arsenazo III assay; details: 70 mM HDMP in reagent
Method: In one aspect of the invention, the reagent includes HDMP. For example, a reagent of the invention can contain about 10 to about 2000 mM HDMP. In various aspects, the reagent contains about 10 to about 800 mM HDMP, and more particularly about 70 mM HDMP. […] Higher levels of HDMP may be selected to further remove calcium and iron interference based upon analytical sensitivity, matrix effects (e.g., diet, drugs, toxicants, […] icterus), solubility, sample quality (e.g., hemolysis) and storage stability. […] The ferric sulfate increased the net absorbance of the solution ([…] nm minus A750 nm). This amount of ferric ion is approximately 10 times the amount that would be contributed by 0.07 mL of a normal canine serum sample.

O=C1CC(=O)NC(=O)N1 [Barbituric acid]
Acid pKa [1]: 4.04

NCC(=O)NCC(=O)O [Diglycine] (H-Gly-Gly-OH)
Acid pKa [1]: 3.14

Cc1c(O)c(=O)ccn1C [HDMP, 3-hydroxy-1,2-dimethyl-4(1H)-pyridone]
calcium masked ([2]; 70 mM HDMP in reagent): 87% | reduction in calcium interference ([2]; optimal amount of HDMP, pH 2.4): greater than 90% | reduction in gadolinium signal [3]: less than 10% | ferric ion masked [4]: greater than 95%
